Experimental data: US20170239237A1, “PYRROLOQUINOLINE DERIVATIVES AS 5-HT6 ANTAGONISTS, PREPARATION METHOD AND USE THEREOF” (Uniwersytet Jagiellonski, priority 2013, published 2017)
pKi: −log10 of the molar value. Like-named read-outs stand apart in the source and are kept apart here.

Legend:
5-HT1A receptor = molecular target: T1, 5-HT1A receptor (Homo sapiens, UniProt P08908); assay: Radioligand binding, 5-HT1A ([3H]-8-OH-DPAT displacement)
T1 sequence (P08908 1-422): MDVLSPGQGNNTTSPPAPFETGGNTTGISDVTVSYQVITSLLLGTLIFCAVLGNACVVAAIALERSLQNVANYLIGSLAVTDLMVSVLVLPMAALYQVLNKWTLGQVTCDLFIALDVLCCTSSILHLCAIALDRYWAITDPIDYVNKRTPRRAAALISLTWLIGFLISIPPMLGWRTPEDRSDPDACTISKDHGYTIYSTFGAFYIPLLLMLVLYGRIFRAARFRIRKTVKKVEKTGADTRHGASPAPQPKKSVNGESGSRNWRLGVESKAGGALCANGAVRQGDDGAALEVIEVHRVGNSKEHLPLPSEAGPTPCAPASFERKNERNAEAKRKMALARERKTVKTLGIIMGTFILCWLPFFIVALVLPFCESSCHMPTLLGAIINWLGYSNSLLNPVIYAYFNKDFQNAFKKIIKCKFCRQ

dopamine D2L receptor = dopamine D2L receptor (Homo sapiens, UniProt P14416); assay: Radioligand binding, D2 ([3H]-raclopride displacement)
Sequence of dopamine D2L receptor (P14416 whole entry): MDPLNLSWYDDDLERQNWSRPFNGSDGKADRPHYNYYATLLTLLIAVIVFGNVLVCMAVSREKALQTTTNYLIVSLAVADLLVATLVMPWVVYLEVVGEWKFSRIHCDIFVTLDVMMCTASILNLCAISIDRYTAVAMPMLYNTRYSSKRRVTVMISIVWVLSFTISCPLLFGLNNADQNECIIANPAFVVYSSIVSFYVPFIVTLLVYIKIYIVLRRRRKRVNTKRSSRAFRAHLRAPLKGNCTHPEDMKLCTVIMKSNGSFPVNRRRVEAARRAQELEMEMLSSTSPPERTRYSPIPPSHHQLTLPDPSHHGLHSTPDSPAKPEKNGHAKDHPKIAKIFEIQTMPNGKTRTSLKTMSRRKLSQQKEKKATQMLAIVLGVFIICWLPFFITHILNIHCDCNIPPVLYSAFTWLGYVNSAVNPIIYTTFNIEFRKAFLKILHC

5-HT7 receptor = 5-HT7 receptor (Homo sapiens, UniProt P34969); assay: Radioligand binding, 5-HT7 ([3H]-5-CT displacement)
Sequence of 5-HT7 receptor (P34969 1-432 limits assumed): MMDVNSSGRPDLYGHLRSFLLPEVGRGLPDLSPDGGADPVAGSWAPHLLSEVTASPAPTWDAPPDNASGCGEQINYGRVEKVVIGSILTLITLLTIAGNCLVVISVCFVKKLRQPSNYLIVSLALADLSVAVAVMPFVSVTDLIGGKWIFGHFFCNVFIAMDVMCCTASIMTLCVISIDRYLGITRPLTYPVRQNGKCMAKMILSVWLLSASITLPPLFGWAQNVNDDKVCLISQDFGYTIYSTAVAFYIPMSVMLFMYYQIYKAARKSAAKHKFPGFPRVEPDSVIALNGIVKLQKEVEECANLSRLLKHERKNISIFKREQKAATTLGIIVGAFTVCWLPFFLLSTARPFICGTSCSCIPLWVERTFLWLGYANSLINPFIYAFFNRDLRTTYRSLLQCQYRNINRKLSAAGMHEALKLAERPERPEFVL

5-HT6 receptor [1] = molecular target: T2, 5-HT6 receptor (Homo sapiens, UniProt P50406); assay: Radioligand binding, 5-HT6 ([3H]-LSD displacement)
T2 sequence (P50406 whole entry): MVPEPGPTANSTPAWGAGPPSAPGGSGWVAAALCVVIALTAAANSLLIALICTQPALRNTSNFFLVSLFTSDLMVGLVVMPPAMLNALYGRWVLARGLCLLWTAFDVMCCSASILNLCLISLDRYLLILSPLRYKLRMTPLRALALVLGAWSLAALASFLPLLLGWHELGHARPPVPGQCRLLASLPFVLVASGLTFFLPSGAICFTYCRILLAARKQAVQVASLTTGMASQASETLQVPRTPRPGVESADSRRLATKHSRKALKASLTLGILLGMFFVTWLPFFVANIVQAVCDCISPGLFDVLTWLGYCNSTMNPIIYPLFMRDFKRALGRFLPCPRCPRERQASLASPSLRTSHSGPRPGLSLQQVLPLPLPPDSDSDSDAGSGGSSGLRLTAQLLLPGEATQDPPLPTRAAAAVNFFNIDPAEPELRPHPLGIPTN

5-HT6 receptor [2] = molecular target: T2, 5-HT6 receptor; assay: CHO-human-5HT6-Aequorin functional assay (ago-/antagonism); settings: test concentration not given; for % inhibition of control agonist response: agonist effect, CHO-human-5HT6-Aequorin cells; for % inhibition of control antagonist response: antagonist effect vs 10^-6 M α-methylserotonin induced luminescence
[3] = read-out: Ki 5-HT6, cloned human receptor in HEK293, three independent experiments, SEM ± 22%
[4] = read-out: Ki 5-HT1A, cloned human receptor in HEK293, three independent experiments, SEM ± 22%
[5] = read-out: Ki D2, cloned human receptor in HEK293, three independent experiments, SEM ± 22%

pKi (5-HT1A receptor) | pKi (dopamine D2L receptor) | pKi (5-HT7 receptor) | pKi (5-HT6 receptor [1]) | % inhibition of control agonist response (5-HT6 receptor [2]) [%] | % inhibition of control antagonist response (5-HT6 receptor [2]) [%] | pKi (5-HT7 receptor; read-out: Ki 5-HT7, cloned human receptor in HEK293, three independent experiments, SEM ± 22%) | SMILES | pKi (5-HT6 receptor [1]; [3]) | pKi (5-HT1A receptor; [4]) | pKi (dopamine D2L receptor; [5]) | pKi (5-HT7 receptor; read-out: Ki 5-HT7)
5.73 | 5.65 | 5.40 | 8.00 |  |  |  | CN(C)CCNc1nc2ccccc2c2c1ccn2S(=O)(=O)c1ccccc1 [Compound 1, N1,N1-dimethyl-N2-(1-(phenylsulfonyl)-1H-pyrrolo[3,2-c]quinolin-4-yl)ethane-1,2-diamine] |  |  |  | 
3.34 | 4.43 | 4.70 | 6.80 | 21.3 | 23.8 |  | O=S(=O)(c1cccc(Cl)c1)n1ccc2c(N3CCOCC3)nc3ccccc3c21 [Compound 78, 1-((3-chlorophenyl)sulfonyl)-4-(morpholine-4-yl)-1H-pyrrolo[3,2-c]quinoline] |  |  |  | 
5.29 | 6.29 | 5.31 | 8.22 | 6.5 | 68.8 |  | COc1cccc(S(=O)(=O)n2ccc3c(NC4CCNC4)nc4ccccc4c32)c1 (stereo not drawn) [Compound 13, 1-((3-methoxyphenyl)sulfonyl)-N-(pyrrolidin-3-yl)-1H-pyrrolo[3,2-c]quinolin-4-amine] |  |  |  | 
6.66 | 5.33 | 5.62 | 7.85 | 7.0 | 61.3 |  | N#Cc1cccc(S(=O)(=O)n2ccc3c(N4CCNCC4)nc4ccccc4c32)c1 [Compound 38, 1-((3-cyanophenyl)sulfonyl)-4-(piperazin-1-yl)-1H-pyrrolo[3,2-c]quinoline] |  |  |  | 
 |  |  |  | 1.5 | 97.3 |  | CN1CCN(c2nc3ccccc3c3c2ccn3S(=O)(=O)c2ccc(N)cc2)CC1 [Compound 57, 1-((4-aminophenyl)sulfonyl)-4-(4-methylpiperazin-1-yl)-1H-pyrrolo[3,2-c]quinoline] |  |  |  | 
5.45 | 5.83 | 5.23 | 7.18 |  |  |  | O=S(=O)(c1cccc2cccnc12)n1ccc2c(N3CCN(Cc4ccccc4)CC3)nc3ccccc3c21 [Compound 62, 1-(quinolin-8-ylsulfonyl)-4-(4-benzylpiperazin-1-yl)-1H-pyrrolo[3,2-c]quinoline] |  |  |  | 
 |  |  |  |  |  |  | Cc1cccc(S(=O)(=O)n2ccc3c(N4CCNCC4)nc4ccccc4c32)c1 [Compound 39, 1-((3-methylphenyl)sulfonyl)-4-(piperazin-1-yl)-1H-pyrrolo[3,2-c]quinoline] |  | 6.12 | 5.67 | 5.38
6.19 | 6.05 | 5.08 |  |  |  |  | CN1CCN(c2nc3ccccc3c3c2ccn3S(=O)(=O)c2cccc(F)c2)CC1 [Compound 55, 1-((3-fluorophenyl)sulfonyl)-4-(4-methylpiperazin-1-yl)-1H-pyrrolo[3,2-c]quinoline] |  |  |  | 
4.07 | 5.23 | 4.57 | 6.73 |  |  |  | O=S(=O)(c1cccc2cccnc12)n1ccc2c(N3CCCCC3)nc3ccccc3c21 [Compound 77, 1-(quinolin-8-ylsulfonyl)-4-(piperidin-1-yl)-1H-pyrrolo[3,2-c]quinoline] |  |  |  | 
5.52 | 6.05 | 5.02 | 8.30 | 9.6 | 80.8 |  | O=S(=O)(c1cccc(F)c1)n1ccc2c(NC3CCNC3)nc3ccccc3c21 (stereo not drawn) [Compound 8, 1-((3-fluorophenyl)sulfonyl)-N-(pyrrolidin-3-yl)-1H-pyrrolo[3,2-c]quinolin-4-amine] |  |  |  | 
 | 5.89 | 5.42 | 8.15 | 10.8 | 88.8 |  | O=S(=O)(c1cccc(C(F)(F)F)c1)n1ccc2c(NC3CCNC3)nc3ccccc3c21 (stereo not drawn) [Compound 14, 1-((3-(trifluoromethyl)phenyl)sulfonyl)-N-(pyrrolidin-3-yl)-1H-pyrrolo[3,2-c]quinolin-4-amine] |  |  |  | 
4.48 | 6.38 | 5.63 | 6.66 |  |  |  | O=S(=O)(c1ccccc1)n1ccc2c(N3CCN(Cc4ccccc4)CC3)nc3ccccc3c21 [Compound 60, 1-(phenylsulfonyl)-4-(4-benzylpiperazin-1-yl)-1H-pyrrolo[3,2-c]quinoline] |  |  |  | 
5.83 | 6.72 | 5.05 | 7.80 | 2.7 | 37.7 |  | Cc1c(S(=O)(=O)n2ccc3c(N4CCNCC4)nc4ccccc4c32)sc2ccc(Cl)cc12 [Compound 48, 1-((5-chloro-3-methylbenzo[b]thiophen-2-yl)sulfonyl)-4-(piperazin-1-yl)-1H-pyrrolo[3,2-c]quinoline] |  |  |  | 
4.72 | 5.81 | 5.88 | 7.03 |  |  |  | Cc1ccc2sc(S(=O)(=O)n3ccc4c(NC5CCNC5)nc5ccccc5c43)cc2c1 (stereo not drawn) [Compound 23, 1-((5-methylbenzo[b]thiophen-2-yl)sulfonyl)-N-(pyrrolidin-3-yl)-1H-pyrrolo[3,2-c]quinolin-4-amine] |  |  |  | 
5.52 | 5.84 | 5.67 |  |  |  |  | O=S(=O)(c1cccc(Cl)c1)n1ccc2c(NC3CCNC3)nc3ccccc3c21 (stereo not drawn) [Compound 5, 1-((3-chlorophenyl)sulfonyl)-N-(pyrrolidin-3-yl)-1H-pyrrolo[3,2-c]quinolin-4-amine] |  |  |  | 
4.82 | 5.19 | 4.73 | 8.40 | 16.4 | 70.2 |  | O=S(=O)(c1cccc2cccnc12)n1ccc2c(NC3CCNC3)nc3ccccc3c21 (stereo not drawn) [Compound 22, 1-(quinolin-8-ylsulfonyl)-N-(pyrrolidin-3-yl)-1H-pyrrolo[3,2-c]quinolin-4-amine] |  |  |  | 
 |  |  |  | 16.9 | 61.0 | 5.11 | CN1CCN(c2nc3ccccc3c3c2ccn3S(=O)(=O)c2cccc3cccnc23)CC1 [Compound 59, 1-(quinolin-8-ylsulfonyl)-4-(4-methylpiperazin-1-yl)-1H-pyrrolo[3,2-c]quinolone] | > 9.00 | 6.68 | 5.72 | 
 | 4.84 | 4.65 | 6.44 | 22.2 | 11.6 |  | O=S(=O)(c1cccc(Cl)c1)n1ccc2c(N3CCCCC3)nc3ccccc3c21 [Compound 76, 1-((3-chlorophenyl)sulfonyl)-4-(piperidin-1-yl)-1H-pyrrolo[3,2-c]quinoline] |  |  |  | 
4.89 | 6.62 | 4.79 | 7.03 |  |  |  | O=S(=O)(c1ccc(Cl)s1)n1ccc2c(N3CCN(Cc4ccccc4)CC3)nc3ccccc3c21 [Compound 61, 1-((5-chlorothiophen-2-yl)sulfonyl)-4-(4-benzylpiperazin-1-yl)-1H-pyrrolo[3,2-c]quinoline] |  |  |  | 

SMILES | pKi (5-HT1A receptor) | pKi (dopamine D2L receptor) | pKi (5-HT7 receptor) | pKi (5-HT6 receptor [1]) | % inhibition of control agonist response (5-HT6 receptor [2]) [%] | % inhibition of control antagonist response (5-HT6 receptor [2]) [%] | pKi (5-HT7 receptor; read-out: Ki 5-HT7, cloned human receptor in HEK293, three independent experiments, SEM ± 22%) | pKi (5-HT6 receptor [1]; [3]) | pKi (5-HT1A receptor; [4]) | pKi (dopamine D2L receptor; [5]) | pKi (5-HT7 receptor; read-out: Ki 5-HT7)
O=S(=O)(c1ccc(C(F)(F)F)cc1)n1ccc2c(N3CCNCC3)nc3ccccc3c21 [Compound 36, 1-((4-(trifluoromethyl)phenyl)sulfonyl)-4-(piperazin-1-yl)-1H-pyrrolo[3,2-c]quinoline] | 6.71 | 4.88 | 5.64 |  |  |  |  | 7.47 |  |  | 
O=S(=O)(c1ccc(F)cc1)n1ccc2c(N3CCNCC3)nc3ccccc3c21 [Compound 31, 1-((4-fluorophenyl)sulfonyl)-4-(piperazin-1-yl)-1H-pyrrolo[3,2-c]quinoline] | 6.67 | 5.23 | 5.19 |  |  |  |  | 7.74 |  |  | 
O=S(=O)(c1ccccc1Br)n1ccc2c(N3CCNCC3)nc3ccccc3c21 [Compound 28, 1-((2-bromophenyl)sulfonyl)-4-(piperazin-1-yl)-1H-pyrrolo[3,2-c]quinoline] | 5.91 | 5.15 | 5.10 | 8.52 |  |  |  |  |  |  | 
COc1cccc(S(=O)(=O)n2ccc3c(N4CCNCC4)nc4ccccc4c32)c1 [Compound 37, 1-((3-methoxyphenyl)sulfonyl)-4-(piperazin-1-yl)-1H-pyrrolo[3,2-c]quinoline] | 6.43 | 5.15 | 5.28 |  |  |  |  |  |  |  | 
CN1CCN(c2nc3ccccc3c3c2ccn3S(=O)(=O)c2cccc(Cl)c2)CC1 [Compound 54, 1-((3-chlorophenyl)sulfonyl)-4-(4-methylpiperazin-1-yl)-1H-pyrrolo[3,2-c]quinoline] | 6.28 | 5.90 | 5.46 |  |  |  |  |  |  |  | 
O=S(=O)(c1cc(F)ccc1F)n1ccc2c(N3CCNCC3)nc3ccccc3c21 [Compound 32, 1-((2,5-difluorophenyl)sulfonyl)-4-(piperazin-1-yl)-1H-pyrrolo[3,2-c]quinoline] | 6.62 | 5.29 | 5.11 |  |  |  |  |  |  |  | 
